In patent publication US20100324075A1, “THERAPEUTIC USE OF CARBOXYL ESTER LIPASE INHIBITORS” (UNIVERSITY OF CINCINNATI, priority 2007, published 2010):

Experiments:
[1] = target: T1, CEL (Homo sapiens, UniProt P19835); assay: Serum HDL, LDL and VLDL cholesterol in a patient with suboptimal HDL given a CEL inhibitor; type: in vivo; conditions: daily oral dose 1 mg per kg, two weeks
T1 construct: The patient takes a daily oral dose of 1 mg per kg body of weight; from tissue; host or cells: whole organism: patient (endogenous enzyme)
T1 sequence (P19835 21-753): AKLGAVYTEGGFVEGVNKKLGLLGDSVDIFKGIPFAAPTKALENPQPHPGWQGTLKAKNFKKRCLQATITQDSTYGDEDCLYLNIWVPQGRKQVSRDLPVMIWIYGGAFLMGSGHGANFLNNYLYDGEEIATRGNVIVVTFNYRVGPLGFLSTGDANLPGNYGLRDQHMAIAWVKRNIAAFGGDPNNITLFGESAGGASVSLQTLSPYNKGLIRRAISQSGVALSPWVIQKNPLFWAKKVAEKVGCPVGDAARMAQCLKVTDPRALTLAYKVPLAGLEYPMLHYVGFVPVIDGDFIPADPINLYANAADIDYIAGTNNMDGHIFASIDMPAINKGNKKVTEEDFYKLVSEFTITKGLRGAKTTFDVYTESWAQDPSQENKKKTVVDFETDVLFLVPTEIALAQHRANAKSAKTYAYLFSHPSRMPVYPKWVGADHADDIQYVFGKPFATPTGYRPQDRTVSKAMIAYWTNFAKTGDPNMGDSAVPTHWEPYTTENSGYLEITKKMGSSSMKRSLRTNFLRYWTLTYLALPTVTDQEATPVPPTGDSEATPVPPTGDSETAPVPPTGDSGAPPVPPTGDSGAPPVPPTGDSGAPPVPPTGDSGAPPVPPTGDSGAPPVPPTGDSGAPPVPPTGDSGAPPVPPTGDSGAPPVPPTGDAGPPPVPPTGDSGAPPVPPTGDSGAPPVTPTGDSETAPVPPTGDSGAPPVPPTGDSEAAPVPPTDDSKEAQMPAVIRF
Protocol: (§1) A patient with suboptimal HDL cholesterol level, which is not the result of a known genetic or other predisposing condition, is prescribed (1,5-dimethylhexyl)carbamic acid 4-phenoxyphenyl ester to raise serum HDL levels. The patient takes a daily oral dose of 1 mg per kg body of weight for a period of two weeks, after which serum cholesterol in HDL, LDL, and VLDL is again measured. It is determined that HDL cholesterol has increased by 15-20%, that the ratio of HDL:LDL has increased, and that VLDL is decreased, such that risk for cardiovascular disease is reduced.
as §1, with “4-methyl-1-piperidinecarboxylic” for “(1,5-dimethylhexyl)carbamic”

[2] = target: T2, CEL (Mus musculus, UniProt Q64285); assay: Daily fecal cholesterol (neutral sterol) excretion in mice fed CEL inhibitor in chow (reverse cholesterol transport); type: in vivo; conditions: C57BL/6 mice
T2 construct: from tissue; host or cells: whole animal: wild-type C57BL/6 mice (CEL made by pancreas and liver)
T2 sequence (Q64285 21-599): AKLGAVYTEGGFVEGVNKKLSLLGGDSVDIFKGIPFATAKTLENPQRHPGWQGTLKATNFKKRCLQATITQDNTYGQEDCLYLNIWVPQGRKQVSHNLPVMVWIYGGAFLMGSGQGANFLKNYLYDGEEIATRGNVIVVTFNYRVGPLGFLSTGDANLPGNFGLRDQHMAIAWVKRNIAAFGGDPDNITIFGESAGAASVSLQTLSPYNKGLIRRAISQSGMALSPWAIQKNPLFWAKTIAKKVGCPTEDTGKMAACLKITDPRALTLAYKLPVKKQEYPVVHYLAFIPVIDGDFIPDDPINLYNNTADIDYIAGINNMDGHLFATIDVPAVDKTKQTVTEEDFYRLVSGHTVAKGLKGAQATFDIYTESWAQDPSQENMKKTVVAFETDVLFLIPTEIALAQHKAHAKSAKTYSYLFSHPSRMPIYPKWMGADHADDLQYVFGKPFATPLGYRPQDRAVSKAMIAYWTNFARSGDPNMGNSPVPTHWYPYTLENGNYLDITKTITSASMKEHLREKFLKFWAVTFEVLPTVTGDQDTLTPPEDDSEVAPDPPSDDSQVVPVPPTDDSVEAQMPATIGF
Protocol: FIG. 8. Excretion of neutral sterol mass is increased by feeding CEL inhibitor (1,5-dimethylhexyl)carbamic acid 4-phenoxyphenyl ester to normal C57BL/6 mice. Inhibitor was mixed with standard rodent chow and fed to mice after baseline excretion was determined. Sterol excretion was again determined after 2 weeks of inhibitor treatment. The change from baseline is plotted for each mouse (n=13).
Animals were individually housed in cages fitted with a wire platform with full access to food and water. After a 1 or 2 day acclimation period, feces were collected for 72 h and sterols were quantitated using a variation of the method described by Post et al. (Post, et al., Increased fecal bile acid excretion in transgenic mice with elevated expression of human phospholipid transfer protein. Arterioscler. Thromb. Vasc. Biol. 23:892-97 (2003)). After being dried and weighed, fecal material was ground to a fine powder. 5α-cholestane (40 μg) and [24-^14C]-taurocholic acid (0.02 μCi) were added to 0.5 g of the ground fecal material as internal standards for extraction efficiency of neutral and acidic sterols, respectively. The fecal material plus standards were suspended in 10 volumes of alkaline methanol (0.2 M NaOH in 80% methanol), incubated at 80° C. for 2 hr, and neutral sterols were separated by 3 extractions with equal volumes of petroleum ether. The combined organic fractions were evaporated under nitrogen, resuspended in hexane, and a portion was used to measure neutral sterols by gas chromatography (Shimadzu Scientific Instruments). Data reported represent the sum of areas under the curves for cholesterol, coprostanol, and lathosterol. The aqueous residue from above was filtered, washed, dried, resuspended in water, and applied to prewashed C18 Bond Elut columns (Varian Inc., Palo Alto, Calif.). Bile acids were eluted from the columns with methanol, concentrated and quantitated by colorimetric assay (Trinity Biotech). To measure fecal sterol esters, ground fecal samples were resuspended in water, extracted with petroleum ether, concentrated, resolved by TLC as above and visualized at 80° C. after staining with 10% phosphomolybdic acid in ethanol, or bands were scraped and quantitated by scintillation spectrometry.
The effect of (1,5-dimethylhexyl)carbamic acid 4-phenoxyphenyl ester on cholesterol disposal has been measured in C57BL/6 mice. Baseline daily fecal cholesterol disposal by chow-fed mice was measured over 3 days using established methods. Thereafter, the same mice were fed a chow diet to which had been added 1 milligram of (1,5-dimethylhexyl)carbamic acid 4-phenoxyphenyl ester per gram of food. The average body weight of the mice was 24 grams. Mice of this size are known to eat between 3.5 and 4 grams of chow per day. Thus, the amount of inhibitor consumed was between 3.5 and 4.0 milligrams per mouse per day or between 146 and 167 milligrams per kilogram of bodyweight. After eating inhibitor-containing diet for 2 weeks, daily fecal cholesterol excretion was again measured over 3 days. […] The average excretion at baseline was 48.9±11.3 micrograms per day per gram bodyweight (range 28.6 to 71.8), which increased to 62.1±10.4 micrograms per day per gram bodyweight (range 45.3 to 89.1) after treatment. The average change per mouse was +33.0% (range −19.3 to +95.4), with 10 of the 13 mice responding positively, 1 showing no change and 2 responding negatively).

SMILES	VLDL [1]	increase in HDL cholesterol [1]	ratio of HDL:LDL [1]	average change per mouse in cholesterol excretion from baseline ([2]; 1 mg/g chow, 2 weeks, n=13, range −19.3 to +95.4)	mice responding positively (increased cholesterol excretion) ([2]; 1 mg/g chow, 2 weeks, 1 no change, 2 negative)	cholesterol excretion, paired data analysis vs baseline ([2]; 1 mg/g chow, 2 weeks, P=0.01)	average increase in cholesterol excretion over baseline, of those that responded positively ([2]; 1 mg/g chow, 2 weeks, positive responders only) [%]	average fecal cholesterol excretion after treatment ([2]; 1 milligram inhibitor per gram chow for 2 weeks, n=13, baseline 48.9±11.3)
CC1CCN(C(=O)Oc2ccc(Oc3ccccc3)cc2)CC1 [4-methyl-1-piperidinecarboxylic acid 4-phenoxyphenyl ester]	decreased	15-20%	increased	–	–	–	–	–
CC(C)CCCC(C)NC(=O)Oc1ccc(Oc2ccccc2)cc1 (centres unmarked) [(1,5-dimethylhexyl)carbamic acid 4-phenoxyphenyl ester]	decreased	15-20%	increased	+33.0%	10 of the 13	significantly increased	46.7	62.1±10.4 micrograms per day per gram bodyweight
